According to ChEMBL document CHEMBL1268851, “Anti-inflammatory Biphenyls and Dibenzofurans from Rhaphiolepis indica” (J Nat Prod, 2010):

Assay: Antiinflammatory activity in human neutrophils assessed as inhibition of fMLP-indcued superoxide production after 5 mins
Type: functional, cell-based
Conditions: Neutrophil

| Structure (SMILES) | IC50 [µM] |
| --- | --- |
| COc1c(O)cc2c(oc3c(OC)cccc32)c1OC | 27.4 |
| COc1c(O)cc2c(oc3cccc(OC)c32)c1OC | 27.4 |
| COc1cc(O)cc(-c2ccccc2OC)c1 | 8.36 |
| COc1cc(O)cc(-c2ccccc2O)c1 | 2.04 |
| COc1c(O)cc2c(oc3c(OC)ccc(OC)c32)c1OC | 7.61 |
| COc1c2c(c3c(oc4c(OC)cccc43)c1OC)OCO2 | > 100 |
| COc1cc(O)cc(-c2ccccc2)c1 | 34.1 |
| CC(C)Cc1ccc(C(C)C(=O)O)cc1 (stereo not drawn) [IBUPROFEN] | 27.5 |
